Patent publication US20080003254A1, “SYSTEMS AND METHODS FOR DELIVERING A RAPAMYCIN ANALOG THAT DO NOT INHIBIT HUMAN CORONARY ARTERY ENDOTHELIAL CELL MIGRATION” (ABBOTT LABORATORIES, priority 2006, published 2008)

Tests used:
[1] = test system: human coronary artery endothelial cells (hCaEC); experiment: hCaEC migration in modified Boyden chambers; assay type: cell-based; settings: for effect on full growth media induced hCaEC migration: 24 hours drug pretreatment in hCaEC full growth media, drug present during migration, FIG. 2; for effect on FBS-induced hCaEC migration: 24 hours drug pretreatment in growth media, migration in response to 5% FBS without additional growth factors, FIG. 3; for effect on hCaEC migration: FIG. 1A
Description: (§1) The cancer chemotherapeutic, paclitaxel is hypothesized to directly interfere with microtubule homeostasis leading to the inhibition of EC migration and proliferation, which can lead to increased thrombosis. Reduced p70S6K activation alone will not result in anti-migratory activity. To examine the comparative effects of sirolimus, zotarolimus, dexamethasone, and paclitaxel on human coronary artery smooth muscle and endothelial cell migration, studies were conducted using modified Boyden chambers. As such, EC migration in response to HFGF, HEGF, VEGF, R^3-IGF-1 and FBS was determined using a modified Boyden chamber. Migration was induced using a variety of chemotactic stimuli including fetal bovine serum (FBS) in the presence and absence of growth factors as well as […] homodimer B (PDGF-BB). Anti-migratory activity was assessed after acute drug treatment and after pretreatment (24 hours) in basal or growth conditions.
(§2) Primary human coronary artery smooth muscle (hCaSMC) and endothelial cells (hCaEC) obtained from Cambrex (Walkersville, Md.) were routinely maintained in media recommended by the manufacturer. The hCaSMC were grown in a smooth muscle growth medium (“minimal media”, SmnBM, Cambrex) supplemented with the appropriate SingleQuot® to yield the complete medium containing 5% FBS, 0.1% hEGF, 0.2% hFGF-B, and 0.1% insulin (hCaSMC growth media). The hCaEC were maintained in the corresponding complete medium consisting of an endothelial cell growth medium (“minimal media”, EBM-2, Cambrex) supplemented with the appropriate SingleQuot® to yield the complete medium containing 5% FBS, 0.1% HEGF-B, 0.4% FGF, 0.1% R3-IGF, 0.04% hydrocortisone, 0.1% VEGF, and 0.1% ascorbic acid (hCaEC growth media). Cells were routinely propagated in the appropriate medium in humidified incubators maintained at 37° C. in an atmosphere containing 5% CO2. When necessary, each cell type was passed at 75% confluence.
(§3) Cells were maintained and used prior to 7 population doublings in all experiments. To expand cells prior to assay, frozen hCaSMC or hCaEC cells were thawed and cultured in T-162 flasks in smooth muscle growth medium (SmGM) or endothelial cell growth medium-2 (EGM-2), respectively, with the appropriate supplements. The cell medium was changed the next day and then every other day until cells reached 70-90% confluency. Growth medium was removed and cells were rinsed twice with PBS (without Ca^2+ and Mg^2+). To detach cells, sufficient trypsin/EDTA (3 ml) was added to cover the cell monolayer and the flask incubated at room temperature. After cells detached, trypsin was neutralized by addition of 6 ml complete medium. Cells were counted, transferred to a 50 ml tube and centrifuged. The cell pellet was re-suspended in growth medium to the appropriate cell density for experiments.
(§4) Cells (hCaEC or hCaSMC) were synchronized for 24 hours in basal media prior to all migration experiments. In acute studies, cells were collected, counted, and 200,000 hCaEC or 160,000 hCaSMC placed in the upper chambers of modified boyden chambers in 24 well plates (BD Biosciences). Plates contained microporous Fluoroblok membranes of 3.0 and 8.0 um for hCaEC and hCaSMC, respectively (Beckton Dickensen Biosciences). Chambers used in hCaEC migration experiments were coated with fibronectin (BD BioCoat). In pretreatment experiments, cells were synchronized in the presence of drug or treated for 24 hours in growth media after synchronization but prior to cell counting and migration. All cells were resuspended in basal media containing drugs or solvent (control) prior to migration. Cells were allowed to migrate in response to chemotatic agents for 22-24 hours. After migration, cells were stained with calcein-AM for 90 minutes and fluorescence determined using a plate reader capable of measuring fluorescence emitted by the bottom of the microporous filter. […]

[2] = test system: human coronary artery smooth muscle cells (hCaSMC); experiment: hCaSMC migration in modified Boyden chambers; assay type: cell-based; settings: for effect on FBS-induced hCaSMC migration: 24 hours drug pretreatment in growth media, migration in response to FBS alone, FIG. 4; for effect on PDGF-BB stimulated hCaSMC migration: 24 hours pretreatment, PDGF-BB (25 ng/ml), FIG. 5
Description: as §1, §2, §3, §4

[3] = test system: p70S6K (T389) phosphorylation; experiment: Western blot of p70S6K (T389) phosphorylation in hCaEC; assay type: cell-based, human; settings: for effect on p70S6K T389 phosphorylation in hCaEC: 300 nM drug in growth media for 36 hours after 24 hours synchronization, FIG. 6A
Description: Human Coronary Endothelial Cells (hCaEC, Cambrex) were seeded on 100 mm plastic dishes (1-3×10^5 cells per dish) and incubated at 37° C. with 5% CO2 in complete growth media containing hFGF, HEGF, VEGF, R^3-IGF-1 and 5% FBS (GM). Cells were allowed to grow until dishes were 30-40% confluent. Cells were synchronized by incubation in basal media without supplements (BM) for 24 h. After synchronization the BM was replaced with GM containing test compounds, DMSO and BSA (Experimental dish: GM containing 300 nM test compounds, 0.1% BSA; Positive control: GM containing 0.1% BSA and 0.1% DMSO; Negative control: BM containing 0.1 or 0.5% FBS, 0.1% BSA and 0.1% DMSO).
Cells were incubated for 24 or 36 hours at 37° C. with 5% CO2. After which dishes were 50-70% confluent. Dishes were rinsed with warm PBS to remove excess FBS and than placed on ice. Whole cell lysates were prepared by adding 150-200 ul of RIPA lysis buffer at 4° C. (50 mM Tris HCl pH 8, 150 mM NaCl, 1% NP-40, 0.5% sodium deoxycholate, 0.1% SDS, 2 mM PMSF, 1 mM sodium orthovanadate, and protease inhibitor cocktail, Santa Cruz Biotechnology) to the culture dishes and collected by scrapping the plate surface with a cell scrapper. Lysates were transferred to 1 ml eppendorf tubes and incubated on ice with vortexing for 30 min. Samples were than centrifuged for 8 min at 10000 rpm. […]
The total protein concentration of the samples was determined by a modification of the method of Bradford (Quick Start Bradford Microplate Standard Assay, Bio-Rad) with bovine γ-globulin as a standard.
Total volume of the loaded sample was 45 ul containing 15 ul of 3× sample buffer (Laemmli Sample Buffer, Bio Rad), and sample (30 ul) containing 25 to 50 ug of protein. […] Denaturated samples were separated in 4-15% gradient or 12% Ready Tris-HCl gels (Bio-Rad) in running buffer 25 mM Tris, pH 8.3, 192 mM glycine, 0.1% SDS at 150-180 V for 60-90 minutes and transferred to Hybond-ECL membrane (Amersham Biosciences) in 25 mM Tris, pH 8.3, 192 mM glycine, 20% methanol at 100 V for 1 hour. […]

[4] = test system: p70S6K (T389) phosphorylation; experiment: Western blot of p70S6K (T389) phosphorylation in hCaSMC; assay type: cell-based, human; settings: 300 nM drug for 36 hours after 24 hours synchronization; FIG. 7
Description: To determine if inhibition of p70S6K was involved in serum-induced migration Western blot experiments were performed on hCaEC and hCaSMC treated using an experimental paradigm similar to those of the migration experiments. Cells were synchronized for 24 hours in basal media followed by drug treatment in growth media for 36 hours. The effects of drug treatment on p70S6K T389 phosphorylation in hCaEC are illustrated in FIG. 6A-6B.
The hCaSMC were synchronized for 24 hours in basal media and incubated in growth media with or without drugs (300 nM) for 36 hours […]. Membranes were probed with a rabbit anti-phospho-p70S6K (T389) monoclonal antibody (Cell Signaling). […] Furthermore, the anti-migratory activity of the mTOR antagonists is not likely to contribute to their anti-restenotic activity. Conversely, paclitaxel is a potent anti-migratory agent and this effect is likely to contribute to it's anti-restenotic activity.

[5] = test system: pRb phosphorylation; experiment: pRb phosphorylation (Western blot, hEC); assay type: cell-based, human
From the text: Western blots have shown the levels of specific proteins using antibodies to those proteins in response to the rapamycin analog (e.g., zotarolimus). […] It has been shown that paclitaxel and zotarolimus inhibit the activation of p70S6K.
Additionally, it has been shown that paclitaxel, but not zotarolimus or dexamethasone, inhibits migration of human coronary artery endothelial cells in vitro. […] Paclitaxel blocks migration, however, all agents reduce p70S6K (T389) phosphorylation. […] Dexamethasone and zotarolimus are not predicted to inhibit re-endothelialization of vascular legions, and dexamethasone may promote re-endothelialization of vascular lesions. In contrast, paclitaxel inhibits re-endothelialization by blocking endothelial cell and/or smooth muscle cell migration.

[6] = acute drug exposure, no pretreatment, 5% FBS, 22 hour migration

IC50 ([1]; Homo sapiens, Endothelial cell, acute drug exposure, no pretreatment, migration induced by 5% FBS, 22 hour migration, mean±SEM, n=3, FIG. 1C, read-out: IC50 of inhibition of hCaEC migration) | IC50 ([2]; Homo sapiens, acute drug exposure, no pretreatment, 5% FBS, 22 hour migration, read-out: IC50 of inhibition of hCaSMC migration) | SMILES | effect on full growth media induced hCaEC migration [1] | effect on FBS-induced hCaEC migration [1] | Emax ([1]; Homo sapiens, Endothelial cell, acute drug exposure, no pretreatment, 5% FBS, 22 hour migration, mean±SEM, n=3, read-out: maximal efficacy of inhibition of hCaEC migration) | effect on FBS-induced hCaSMC migration [2] | effect on PDGF-BB stimulated hCaSMC migration [2] | Emax ([2]; Homo sapiens, acute drug exposure, no pretreatment, 5% FBS, 22 hour migration, read-out: maximal efficacy of inhibition of hCaSMC migration) | effect on p70S6K T389 phosphorylation in hCaEC [3] | effect on p70S6K T389 phosphorylation in hCaSMC [4] | effect on hCaEC migration [1, 6] | p70S6K T389 to actin ratio compared to growth controls (densitometry) ([3]; hCaEC, 300 nM drug, FIG. 6B) | effect on pRb phosphorylation [5]
– | – | CO[C@H]1C[C@@H]2CC[C@@H](C)[C@@](O)(O2)C(=O)C(=O)N2CCCC[C@H]2C(=O)O[C@H]([C@H](C)C[C@@H]2CC[C@@H](OCCO)[C@H](OC)C2)CC(=O)[C@H](C)/C=C(\C)[C@@H](O)[C@@H](OC)C(=O)[C@H](C)C[C@H](C)/C=C/C=C/C=C/1C [everolimus] | only paclitaxel inhibits | – | – | – | – | – | – | – | – | – | –
28.2 ± 3.4 nM | 87.4 ± 18 nM | CC(=O)O[C@H]1C(=O)[C@@]2(C)[C@H]([C@H](OC(=O)c3ccccc3)[C@]3(O)C[C@H](OC(=O)[C@H](O)[C@@H](NC(=O)c4ccccc4)c4ccccc4)C(C)=C1C3(C)C)[C@]1(OC(C)=O)CO[C@@H]1C[C@@H]2O [paclitaxel] | inhibits | significantly blocks | 96.8 ± 1.8% | significantly blocks | inhibited migration | 86.9 ± 2.9% | reduces T389 phosphorylation | reduces p70S6K | – | – | –
– | – | CO[C@H]1C[C@@H]2CC[C@@H](C)[C@@](O)(O2)C(=O)C(=O)N2CCCC[C@H]2C(=O)O[C@H]([C@H](C)C[C@@H]2CC[C@@H](O)[C@H](OC)C2)CC(=O)[C@H](C)/C=C(\C)[C@@H](O)[C@@H](OC)C(=O)[C@H](C)C[C@H](C)/C=C/C=C/C=C/1C [sirolimus] | – | – | – | – | – | – | – | – | no effect | – | –
– | – | CO[C@H]1C[C@@H]2CC[C@@H](C)[C@@](O)(O2)C(=O)C(=O)N2CCCC[C@H]2C(=O)O[C@H]([C@H](C)C[C@@H]2CC[C@H](n3cnnn3)[C@H](OC)C2)CC(=O)[C@H](C)/C=C(\C)[C@@H](O)[C@@H](OC)C(=O)[C@H](C)C[C@H](C)/C=C/C=C/C=C/1C [zotarolimus] | only paclitaxel inhibits | did not significantly block | – | did not significantly block | inhibited migration | – | completely block | completely inhibit | no effect | significant inhibition | reduces pRb phosphorylation
